According to article PMC9497675, “Explore the Interaction between Ellagic Acid and Zein Using Multi-Spectroscopy Analysis and Molecular Docking” (Foods, 2022):

Molecular target: T1, zein
T1 construct: gene alpha-zein
Assay: intrinsic fluorescence quenching (ex […] nm), modified Stern-Volmer double-log plot
Assay type: binding, Zea mays
Details: 298 K; 0.05 mg/mL zein in 70% aqueous ethanol; EA stock in 50% methanol; n = 1.2786; apparent constant

- KA (L/mol): 9.47 × 10^2
SMILES: O=c1oc2c(O)c(O)cc3c(=O)oc4c(O)c(O)cc1c4c23 [EA, ellagic acid]
